PubChem BioAssay (NCI)
Values joined by “and” are separate entries in the source; they are usually repeats but may differ in a detail not shown here. Identical values can stand only once.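 Values below derive from 48-hour exposures of cells grown in 96-well plates, with endpoints linearly interpolated between the two concentrations bracketing the appropriate inhibition level. GI50 is the concentration that inhibits growth by half. TGI is the concentration that stops growth completely.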

Tested on: NCI-H522 lung
Assay: inhibition of tumour cell growth, NCI panel, 48 h

In order of falling GI50:
1. Fc1cc(F)c(COc2cc(Cn3cnc4c(Cl)nc(Cl)nc43)ccc2C23CC4CC(CC(C4)C2)C3)cc1F  2.29 µM
2. CCCCN=C(N)c1ccc(OCCSCCOc2ccc(C(N)=NCCCC)cc2)cc1  2.25 µM
3. NC(=S)N/N=C/c1ccc(OC(=O)COc2ccc(Cl)cc2)cn1  0.718 µM
4. CCN(CC)c1sc(N(CC)CC)c2c1SSSSS2  0.416 µM
5. O=C(N/N=C/c1cccc(O)c1O)c1ccccc1  0.323 µM
6. CC/C=C\C[C@@H]1C/C=C2/C(=O)C=C[C@H]2C/C=C\CCCC(=O)O1  0.231 µM
7. COc1ccc(C(=O)c2cc(C)c(OC)c(C)c2)c(OC)c1N(C(=O)C(Cl)Cl)C(=O)C(Cl)Cl  0.0322 µM
8. COc1ccc(OC)c(/C=C/C(=O)N/N=C/c2ccc(Cl)cc2)c1  0.0298 µM

First: Fc1cc(F)c(COc2cc(Cn3cnc4c(Cl)nc(Cl)nc43)ccc2C23CC4CC(CC(C4)C2)C3)cc1F
Second: COc1ccc(N2C(=O)C3c4[nH]c5ccc(C)cc5c4C4CCC(C(C)(C)C)CC4C3C2=O)cc1 (stereo unspecified)
The TGI of the first is lower: 5.56 µM for the first, over 100 µM for the second.

First: CC/C=C\C[C@@H]1C/C=C2/C(=O)C=C[C@H]2C/C=C\CCCC(=O)O1
Second: CN/N=C(/CCN1CCCC1)CC(c1ccccc1)c1c(O)c2ccccc2oc1=O (stereo unspecified)
The TGI of the first is lower: 0.737 µM for the first, over 100 µM for the second.

Compared with NC(=S)N/N=C/c1ccc(OC(=O)COc2ccc(Cl)cc2)cn1, COc1ccc(OC)c(/C=C/C(=O)N/N=C/c2ccc(Cl)cc2)c1 is 7-fold lower in TGI: 40 µM for the first, 5.72 µM for the second.

First: O=C(N/N=C/c1cccc(O)c1O)c1ccccc1
Second: NC(CC(=O)OCc1ccccc1)C(=O)OCc1ccccc1 (stereo unspecified)
The TGI of the first is lower: 2.25 µM for the first, over 100 µM for the second.

Compared with c1ccc(C2=NNC3c4ccccc4-c4ccccc4N3C2)cc1 (stereo unspecified), CCCCN=C(N)c1ccc(OCCSCCOc2ccc(C(N)=NCCCC)cc2)cc1 is 6.3-fold lower in TGI: 80.3 µM for the first, 12.8 µM for the second.

Tested on: SN12C renal
Assay: inhibition of tumour cell growth, NCI panel, 48 h

Compared with O=C1NC(=O)c2ccc([N+](=O)[O-])c3cccc1c23, CN(C)CCCn1c2c(c3ccccc3c1=O)C(=O)c1ccccc1-2 is 10-fold lower in TGI: 32.1 µM for the first, 3.07 µM for the second.

Compared with C[N+](C)(C)CC1CCCC(C[N+](C)(C)C)C1=O (stereo unspecified), CC/C=C\C[C@@H]1C/C=C2/C(=O)C=C[C@H]2C/C=C\CCCC(=O)O1 is 2.7-fold higher in TGI: 1.5 µM for the first, 4.01 µM for the second.

Compared with COc1ccc2c(c1)C=C([N+](=O)[O-])C(C1OC(C)(C)OC1C1COC(C)(C)O1)O2 (stereo unspecified), COc1ccc(N2C(=O)C3c4[nH]c5ccc(C)cc5c4C4CCC(C(C)(C)C)CC4C3C2=O)cc1 (stereo unspecified) is higher in TGI: 19.7 µM for the first, over 100 µM for the second.

CN(C)CCNC(=O)c1cccc(C(=O)Nc2ccccc2)c1[N+](=O)[O-] and O=C(N/N=C/c1cccc(O)c1O)c1ccccc1 cannot be ordered by TGI: over 100 µM for the first, over 100 µM for the second.

Compared with CC(=O)OC1Oc2ccccc2-c2oc(=O)c(-c3cc4ccc(N(C)C)cc4oc3=O)cc21 (stereo unspecified), COc1cc2oc(-c3ccc(O)cc3)cc(=O)c2c(OC)c1OC is higher in TGI: 69.6 µM for the first, over 100 µM for the second.

COc1ccc2c(c1)C(=O)c1c-2n(CCCn2ccnc2)c(=O)c2ccccc12 and CN/N=C(/CCN1CCCC1)CC(c1ccccc1)c1c(O)c2ccccc2oc1=O (stereo unspecified) cannot be ordered by TGI: over 100 µM for the first, over 100 µM for the second.

Going from O=C(CCl)Nc1ccc(Cl)cc1 to NC(=S)N/N=C/c1ccc(OC(=O)COc2ccc(Cl)cc2)cn1, the TGI rises from 22.9 µM to over 100 µM.

First: Fc1cc(F)c(COc2cc(Cn3cnc4c(Cl)nc(Cl)nc43)ccc2C23CC4CC(CC(C4)C2)C3)cc1F
Second: COc1ccc(OC)c(/C=C/C(=O)N/N=C/c2ccc(Cl)cc2)c1
The TGI of the first is lower: 24.9 µM for the first, over 100 µM for the second.

c1ccc(C2=NNC3c4ccccc4-c4ccccc4N3C2)cc1 (stereo unspecified) and NC(CC(=O)OCc1ccccc1)C(=O)OCc1ccccc1 (stereo unspecified) cannot be ordered by TGI: over 100 µM for the first, over 100 µM for the second.

COc1ccc(C(=O)c2cc(C)c(OC)c(C)c2)c(OC)c1N(C(=O)C(Cl)Cl)C(=O)C(Cl)Cl and CCCCN=C(N)c1ccc(OCCSCCOc2ccc(C(N)=NCCCC)cc2)cc1 cannot be ordered by TGI: over 100 µM for the first, over 100 µM for the second.

In the case of CCN(CC)c1sc(N(CC)CC)c2c1SSSSS2, the TGI is reported as 0.866 µM.

In order of rising GI50:
1. COc1ccc(C(=O)c2cc(C)c(OC)c(C)c2)c(OC)c1N(C(=O)C(Cl)Cl)C(=O)C(Cl)Cl  0.0727 µM
2. CCN(CC)c1sc(N(CC)CC)c2c1SSSSS2  0.315 µM
3. COc1ccc(OC)c(/C=C/C(=O)N/N=C/c2ccc(Cl)cc2)c1  0.488 µM
4. CC/C=C\C[C@@H]1C/C=C2/C(=O)C=C[C@H]2C/C=C\CCCC(=O)O1  0.545 µM
5. COc1ccc2c(c1)C(=O)c1c-2n(CCCn2ccnc2)c(=O)c2ccccc12  0.692 µM
6. O=C(N/N=C/c1cccc(O)c1O)c1ccccc1  0.73 µM
7. CN(C)CCCn1c2c(c3ccccc3c1=O)C(=O)c1ccccc1-2  0.907 µM
8. CCC1(O)C(=O)OCc2c1cc1n(c2=O)Cc2cc3ccc(C=O)cc3nc2-1 (stereo unspecified)  1.39 µM
9. CCCCN=C(N)c1ccc(OCCSCCOc2ccc(C(N)=NCCCC)cc2)cc1  1.76 µM
10. O=C(CCl)Nc1ccc(Cl)cc1  3.4 µM
11. NC(=S)N/N=C/c1ccc(OC(=O)COc2ccc(Cl)cc2)cn1  4.53 µM
12. Fc1cc(F)c(COc2cc(Cn3cnc4c(Cl)nc(Cl)nc43)ccc2C23CC4CC(CC(C4)C2)C3)cc1F  11 µM
13. CC(=O)OC1Oc2ccccc2-c2oc(=O)c(-c3cc4ccc(N(C)C)cc4oc3=O)cc21 (stereo unspecified)  19.9 µM

For CCC1(O)C(=O)OCc2c1cc1n(c2=O)Cc2cc3ccc(C=O)cc3nc2-1 (stereo unspecified), the TGI was 50 µM and 7.53 µM.

Tested on: U251 CNS
Assay: inhibition of tumour cell growth, NCI panel, 48 h

Compared with O=C1NC(=O)c2ccc([N+](=O)[O-])c3cccc1c23, CN(C)CCCn1c2c(c3ccccc3c1=O)C(=O)c1ccccc1-2 is 5.1-fold lower in TGI: 32.3 µM for the first, 6.37 µM for the second.

Compared with C[N+](C)(C)CC1CCCC(C[N+](C)(C)C)C1=O (stereo unspecified), CC/C=C\C[C@@H]1C/C=C2/C(=O)C=C[C@H]2C/C=C\CCCC(=O)O1 is 6.8-fold lower in TGI: 10.3 µM for the first, 1.51 µM for the second.

Going from COc1ccc2c(c1)C=C([N+](=O)[O-])C(C1OC(C)(C)OC1C1COC(C)(C)O1)O2 (stereo unspecified) to COc1ccc(OC)c(/C=C/C(=O)N/N=C/c2ccc(Cl)cc2)c1, the TGI falls from 9.83 µM to 1.49 µM (6.6-fold).

CN(C)CCNC(=O)c1cccc(C(=O)Nc2ccccc2)c1[N+](=O)[O-] and O=C(N/N=C/c1cccc(O)c1O)c1ccccc1 cannot be ordered by TGI: over 100 µM for the first, over 100 µM for the second.

Going from CC(=O)OC1Oc2ccccc2-c2oc(=O)c(-c3cc4ccc(N(C)C)cc4oc3=O)cc21 (stereo unspecified) to COc1cc2oc(-c3ccc(O)cc3)cc(=O)c2c(OC)c1OC, the TGI rises from 23.7 µM to over 100 µM.

Compared with COc1ccc2c(c1)C(=O)c1c-2n(CCCn2ccnc2)c(=O)c2ccccc12, CN/N=C(/CCN1CCCC1)CC(c1ccccc1)c1c(O)c2ccccc2oc1=O (stereo unspecified) is higher in TGI: 2.6 µM for the first, over 100 µM for the second.

Going from O=C(CCl)Nc1ccc(Cl)cc1 to NC(=S)N/N=C/c1ccc(OC(=O)COc2ccc(Cl)cc2)cn1, the TGI rises from 5.26 µM to over 100 µM.

First: Fc1cc(F)c(COc2cc(Cn3cnc4c(Cl)nc(Cl)nc43)ccc2C23CC4CC(CC(C4)C2)C3)cc1F
Second: c1ccc(C2=NNC3c4ccccc4-c4ccccc4N3C2)cc1 (stereo unspecified)
The TGI of the first is lower: 30.4 µM for the first, over 100 µM for the second.

COc1ccc(C(=O)c2cc(C)c(OC)c(C)c2)c(OC)c1N(C(=O)C(Cl)Cl)C(=O)C(Cl)Cl and CCCCN=C(N)c1ccc(OCCSCCOc2ccc(C(N)=NCCCC)cc2)cc1 cannot be ordered by TGI: over 100 µM for the first, over 100 µM for the second.

CCN(CC)c1sc(N(CC)CC)c2c1SSSSS2 was tested, and the TGI was 13.2 µM.

In order of falling GI50:
1. Fc1cc(F)c(COc2cc(Cn3cnc4c(Cl)nc(Cl)nc43)ccc2C23CC4CC(CC(C4)C2)C3)cc1F  16.8 µM
2. CC(=O)OC1Oc2ccccc2-c2oc(=O)c(-c3cc4ccc(N(C)C)cc4oc3=O)cc21 (stereo unspecified)  10.5 µM
3. NC(=S)N/N=C/c1ccc(OC(=O)COc2ccc(Cl)cc2)cn1  4.24 µM
4. CCN(CC)c1sc(N(CC)CC)c2c1SSSSS2  2.76 µM
5. O=C(CCl)Nc1ccc(Cl)cc1  2.22 µM
6. CCCCN=C(N)c1ccc(OCCSCCOc2ccc(C(N)=NCCCC)cc2)cc1  1.6 µM
7. CN(C)CCCn1c2c(c3ccccc3c1=O)C(=O)c1ccccc1-2  1.47 µM
8. CCC1(O)C(=O)OCc2c1cc1n(c2=O)Cc2cc3ccc(C=O)cc3nc2-1 (stereo unspecified)  1.02 µM
9. O=C(N/N=C/c1cccc(O)c1O)c1ccccc1  0.569 µM
10. CC/C=C\C[C@@H]1C/C=C2/C(=O)C=C[C@H]2C/C=C\CCCC(=O)O1  0.365 µM
11. COc1ccc(OC)c(/C=C/C(=O)N/N=C/c2ccc(Cl)cc2)c1  0.184 µM
12. COc1ccc2c(c1)C(=O)c1c-2n(CCCn2ccnc2)c(=O)c2ccccc12  0.126 µM
13. COc1ccc(C(=O)c2cc(C)c(OC)c(C)c2)c(OC)c1N(C(=O)C(Cl)Cl)C(=O)C(Cl)Cl  0.0553 µM

CCC1(O)C(=O)OCc2c1cc1n(c2=O)Cc2cc3ccc(C=O)cc3nc2-1 (stereo unspecified) was tested, and the TGI was 50 µM and 8.82 µM.
